Results on two compounds are retold here after article PMC5571211 (Scientific Reports, 2017).

In assay [1] the target is T1, LTC4S (Homo sapiens, UniProt Q16873).
T1 construct: expressed in transfected cells; host or cells: HEK293 stably expressing LTC4S (geneticin selection), microsomal fraction
T1 sequence (Q16873 1-150): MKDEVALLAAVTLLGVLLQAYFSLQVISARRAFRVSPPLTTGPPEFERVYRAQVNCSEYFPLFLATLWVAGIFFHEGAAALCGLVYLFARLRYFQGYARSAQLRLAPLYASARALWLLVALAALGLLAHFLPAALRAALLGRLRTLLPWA
To be noted: cited from earlier work.

Assay [2] concerns the target T2, 5-LOX/FLAP complex (Homo sapiens, UniProt P20292).
T2 construct: endogenous in cells; host or cells: freshly isolated human monocytes (immunofluorescence also in neutrophils)
T2 sequence (P20292 1-161): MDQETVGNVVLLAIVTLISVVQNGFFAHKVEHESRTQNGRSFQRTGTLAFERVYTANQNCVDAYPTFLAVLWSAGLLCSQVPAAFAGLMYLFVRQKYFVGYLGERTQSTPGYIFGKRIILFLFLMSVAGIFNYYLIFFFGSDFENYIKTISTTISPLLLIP
Nature of the assay: Proximity ligation assay of 5-LOX/FLAP complex assembly in monocytes. It counts as cell-based. To be noted: diflapolin 1 µM, MK886 0.3 µM, zileuton 3 µM. As to the method:
In situ protein interaction of 5-LOX and FLAP was analyzed by proximity ligation assay as described before[37] and referring to the manufacturer’s protocol. In brief, freshly isolated monocytes were treated as described for IF above. Overnight incubations with primary antibodies were then treated for 1 h (37 °C) with oligonucleotide-labeled specific secondary antibodies (PLA probes anti-mouse MINUS and anti-rabbit PLUS). Formation of circled DNA sequences was induced by addition of ligase and oligonucleotide mixture (30 min at 37 °C). Rolling-circle-amplification of newly generated DNA template was performed (90 min, 37 °C) including hybridization of fluorescently-labeled oligonucleotides within the formed DNA strands, resulting in visualization of protein-protein interactions recognized as magenta-stained dots. Nuclear DNA staining with DAPI and image acquisition was performed as described above. Overview images were obtained using a Plan Neofluar 40/1.30 Oil (DIC III) objective (Carl Zeiss).

The target in assay [3] is T3, recombinant human COX-2 (Homo sapiens, UniProt P35354).
T3 construct: purchased Cayman Chemical (Biomol, Hamburg, Germany)
T3 sequence (P35354 18-604): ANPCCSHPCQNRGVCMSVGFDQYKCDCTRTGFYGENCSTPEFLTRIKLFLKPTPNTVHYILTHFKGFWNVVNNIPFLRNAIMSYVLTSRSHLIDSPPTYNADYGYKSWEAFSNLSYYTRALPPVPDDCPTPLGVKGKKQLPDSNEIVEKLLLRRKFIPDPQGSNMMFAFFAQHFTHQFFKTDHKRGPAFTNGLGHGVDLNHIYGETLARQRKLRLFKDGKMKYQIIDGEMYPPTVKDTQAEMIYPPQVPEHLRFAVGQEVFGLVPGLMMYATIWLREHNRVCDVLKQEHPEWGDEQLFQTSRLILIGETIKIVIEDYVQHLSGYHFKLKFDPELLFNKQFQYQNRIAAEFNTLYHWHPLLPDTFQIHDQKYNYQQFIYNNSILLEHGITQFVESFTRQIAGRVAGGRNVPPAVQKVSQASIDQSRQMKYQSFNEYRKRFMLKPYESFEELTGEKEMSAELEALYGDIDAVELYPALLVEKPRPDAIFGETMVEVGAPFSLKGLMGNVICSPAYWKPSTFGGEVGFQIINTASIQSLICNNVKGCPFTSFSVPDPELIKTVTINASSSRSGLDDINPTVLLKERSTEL
The experiment in a line: COX-2 activity, cell-free (12-HHT formation). It counts as biochemical. To be noted: 10 µM. As to the method: (§1) COX activity was assayed by using purified ovine COX-1 and recombinant human COX-2, respectively. Enzymes were diluted in Tris buffer (100 mM, pH 8) supplemented with glutathione (5 mM), EDTA (100 µM) and hemoglobin (5 µM) to a final concentration of 50 U/mL (COX-1) or 20 U/mL (COX-2) and pre-incubated with test compounds or vehicle (0.1% DMSO) for 5 min at RT. After 30 sec at 37 °C, reactions were started with 5 µM AA (COX-1) or 2 µM AA (COX-2) and stopped after 5 min at 37 °C by addition of one volume of ice-cold methanol. Solid phase extraction was performed as described above after addition of 200 ng of internal PGB1 standard and COX product formation was determined by analysis of 12-HHT formation as reported before.

The test system of assay [4] is HEK293 cells expressing 5-LOX and FLAP. Nature of the assay: 5-LOX product formation in HEK293 cells expressing 5-LOX and FLAP. The format is cell-based. To be noted: HEK293 expressing 5-LOX and FLAP, A23187 plus 3 µM AA. Here is the method:
HEK293 cells were cultured in monolayers (37 °C, 5% CO2) in DMEM containing FCS (10%), penicillin (100 U/mL) and streptomycin (100 µg/mL). HEK293 cell lines stably expressing 5-LOX with or without FLAP were selected using geneticin (400 µg/mL) with or without hygromycin (200 µg/mL), respectively, as previously described. Transfection of HEK293 was performed using pcDNA3.1 plasmids and lipofectamine according to the manufacturer’s instructions (Invitrogen, Darmstadt, Germany).
For analysis of 5-LOX product formation in HEK293 cells stably expressing 5-LOX with or without FLAP, cells were harvested by trypsinization, pelleted (1,200 rpm, 5 min, 4 °C) and resuspended in PGC buffer to a final concentration of 1 × 10^6 cells/mL. Aliquots were pre-incubated with test compounds or 0.1% DMSO for 15 min, respectively, and stimulated with 2.5 µM A23187 and 3 µM AA.

The test system of assay [5] is 15-LOX. Nature of the assay: 15-LOX activity (15-HETE) in intact neutrophils. It counts as cell-based, human. To be noted: A23187 and 20 µM AA, concentration-dependently elevated.
Procedure: In order to examine 5-LOX product formation in intact human neutrophils and monocytes, freshly isolated cells were resuspended in PBS buffer containing 0.1% glucose and 1 mM CaCl2 (PGC buffer) to a final cell density of 5 × 10^6 or 2 × 10^6, respectively. […] 5-LOX product formation was stopped by addition of one volume of ice-cold methanol, samples were subjected to solid phase extraction after addition of 200 ng PGB1 as internal standard and 5-LOX products were analyzed by RP-HPLC as described above.
Assay [6] has as its target T4, purified ovine COX-1 (Ovis aries, UniProt P05979).
T4 construct: purchased Cayman Chemical (Biomol, Hamburg, Germany)
T4 sequence (P05979 25-600): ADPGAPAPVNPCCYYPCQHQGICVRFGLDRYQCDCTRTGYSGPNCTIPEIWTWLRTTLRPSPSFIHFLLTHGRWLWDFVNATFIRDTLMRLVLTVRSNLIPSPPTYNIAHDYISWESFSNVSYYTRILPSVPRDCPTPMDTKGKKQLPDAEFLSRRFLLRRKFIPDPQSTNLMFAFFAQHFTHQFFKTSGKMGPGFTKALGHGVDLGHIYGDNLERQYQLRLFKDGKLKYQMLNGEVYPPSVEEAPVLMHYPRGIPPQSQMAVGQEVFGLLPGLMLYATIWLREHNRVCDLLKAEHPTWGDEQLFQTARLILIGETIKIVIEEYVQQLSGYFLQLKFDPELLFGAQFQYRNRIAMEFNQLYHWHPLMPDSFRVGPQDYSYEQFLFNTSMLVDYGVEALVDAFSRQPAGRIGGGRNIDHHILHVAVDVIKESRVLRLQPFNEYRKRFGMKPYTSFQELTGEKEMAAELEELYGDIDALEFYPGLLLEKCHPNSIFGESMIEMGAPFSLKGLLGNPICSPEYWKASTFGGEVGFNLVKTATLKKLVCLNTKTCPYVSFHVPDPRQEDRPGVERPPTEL
Nature of the assay: COX-1 activity, cell-free (12-HHT formation). The format is biochemical. To be noted: 10 µM. As to the method:
as §1

As for `CC(C)c1ccc2c(c1)c(SC(C)(C)C)c(CC(C)(C)C(=O)O)n2Cc1ccc(Cl)cc1` [MK886, 3-[1-(4-chlorobenzyl)-3-t-butyl-thio-5-isopropylindol-2-yl]-2,2 - dimethylpropanoic acid], in assay [1], the “inhibition of MAPEG family member LTC4S” value was “inhibit”. Besides, the “5-LOX/FLAP complex assembly (PLA)” value in assay [2] was “comparable effects”.
With `Cc1cc(OCc2nc3ccccc3s2)ccc1NC(=O)Nc1ccc(Cl)c(Cl)c1` [diflapolin, N-[4-(benzothiazol-2-ylmethoxy)-2-methylphenyl]-N′-(3,4-dichlorophenyl)urea], the “inhibition of COX-2 activity” value in assay [3] is “did not significantly inhibit”. Also, the “inhibition of 5-LOX product formation” value in assay [4] is recorded as “strongly inhibited”. Besides, in assay [5], the 15-HETE formation entry is listed as “up to 200 % of the vehicle control”. Also, in assay [6], the “inhibition of COX-1 activity” value is on record as “did not significantly inhibit”.
